The subject of assay [1] is Brassica napus (winter rape). In words: Pre-emergence herbicidal effect and crop plant compatibility, BRSNW. It is filed as in vivo. The conditions noted are these: scored after about 3 weeks. From the text: (§1) 1. Pre-emergence herbicidal effect and crop plant compatibility
(§2) • Seeds of monocotyledonous or dicotyledonous weed plants or crop plants are planted in wood-fiber pots in sandy loam and covered with soil. The compounds according to the invention, formulated in the form of wettable powders (WP), are then applied as aqueous suspension at a water application rate of 600 l/ha (converted) with the addition of 0.2% of wetting agent to the surface of the covering soil. • After the treatment, the pots are placed in a greenhouse and kept under good growth conditions for the test plants. After about 3 weeks, the effect of the preparations is scored visually in comparison with untreated controls (herbicidal effect in percent (%): 100% activity=the plants have died, 0% activity=like control plants). • As shown by the results, the compounds according to the invention have good herbicidal pre-emergence activity against a broad spectrum of weed grasses and broad-leaved weeds. […] Some of the compounds according to the invention have high selectivity and are therefore suitable for controlling unwanted vegetation in agricultural crops by the pre-emergence method.
(§3) • ALOMY Alopecurus myosuroides (black-grass) • LOLMU: Lolium multiflorum (Italian ryegrass) • SETVI: Setaria viridis (green foxtail) • BRSNW: Brassica napus (winter rape) • ZEAMX: Zea mays (corn) 2. Post-Emergence Herbicidal Effect and Crop Plant Compatibility • Seeds of monocotyledonous and dicotyledonous weed and crop plants are placed in sandy loam in wood fibre pots, covered with soil and cultivated in a greenhouse under good growth conditions. 2 to 3 weeks after sowing, the test plants are treated at the one-leaf stage. The compounds according to the invention, formulated in the form of wettable powders (WP), are then applied by spraying as aqueous suspension at a water application rate of 600 l/ha (converted) with the addition of 0.2% of wetting agent to the green parts of the plants. After the test plants have been kept in the greenhouse under optimum growth conditions for about 3 weeks, the activity of the preparations is rated visually in comparison to untreated controls (herbicidal activity in percent (%): 100% activity=the plants have died, 0% activity=like control plants). • As shown by the results, the compounds according to the invention have good herbicidal post-emergence activity against a plurality of weed grasses and broad-leaved weeds. […] Some of the compounds according to the invention have high selectivity and are therefore suitable for controlling unwanted vegetation in agricultural crops by the post-emergence method.

Assay [2] concerns Lolium multiflorum (Italian ryegrass). In words: Pre-emergence herbicidal effect, LOLMU. It is filed as in vivo. The conditions noted are these: scored after about 3 weeks.
Source text: as §1, §2, §3

Assay [3] concerns Setaria viridis (green foxtail). The assay can be described thus: Pre-emergence herbicidal effect, SETVI. The format is in vivo. The conditions noted are these: scored after about 3 weeks.
Source text: as §1, §2, §3

The test system of assay [4] is Alopecurus myosuroides (black-grass). In words: Pre-emergence herbicidal effect, ALOMY. It is filed as in vivo. The note with it: scored after about 3 weeks.
Source text: as §1, §2, §3

Another assay concerns Zea mays (corn). The assay can be described thus: Pre-emergence herbicidal effect and crop plant compatibility, ZEAMX. The note with it: scored after about 3 weeks. The format is in vivo.
Source text: as §1, §2, §3

The next assay concerns POLCO. In words: Pre-emergence herbicidal effect, POLCO. It is filed as in vivo. The note with it: scored after about 3 weeks.
Source text: as §1, §2

The next assay has as its system VERPE. The assay can be described thus: Pre-emergence herbicidal effect, VERPE. The format is in vivo, Veronica persica. The note with it: scored after about 3 weeks.
Source text: as §1, §2

Assay [5] concerns Avena fatua, Stellaria media, Echinochloa crus-galli, Lolium multiflorum, Setaria viridis, Amaranthus retroflexus, Viola tricolor, Veronica persica and …. The assay can be described thus: Pre-emergence herbicidal activity against harmful plants. The format is in vivo. The note with it: application rate of 0.32 kg and less of active substance per hectare.
Source text: as §1, §2

In assay [6] the test system is Avena fatua, Echinochloa crus-galli, Lolium multiflorum, Setaria viridis and Alopecurus myosuroides. The assay can be described thus: Post-emergence herbicidal effect and crop plant compatibility. It is filed as in vivo. The conditions noted are these: application rate of 0.32 kg and less of active substance per hectare.
Source text: as §3

As to `CC1(C)CC([S+]([O-])Cc2c(F)cccc2F)=NO1` (racemic) [Racemate of 6 (S config.) and 228 (R config.), 3-[(2,6-difluorobenzyl)sulfinyl]-5,5-dimethyl-4,5-dihydroisoxazole, reference compound], the “herbicidal effect in percent, BRSNW (crop plant)” value turned out to be 20% in [1] (80 g of active compound/ha) and 30% in assay [1] (320 g of active compound/ha). Besides, the “herbicidal effect in percent, LOLMU” value in [2] (80 g of active compound/ha) and in assay [2] (320 g of active compound/ha) was 80% throughout. Also, the “herbicidal effect in percent, SETVI” value in assay [3] (80 g of active compound/ha) and in assay [3] (320 g of active compound/ha) was 40% throughout. For the same molecule, the “herbicidal effect in percent, ALOMY” value in assay [4] (80 g of active compound/ha) is 70%; in assay [4] (320 g of active compound/ha), 100%.

For `CC1(C)CC([S+]([O-])Cc2c(Cl)cccc2Cl)=NO1` (racemic) [Racemate of 32 (S config.) and 254 (R config.), 3-[(2,6-dichlorobenzyl)sulfinyl]-5,5-dimethyl-4,5-dihydroisoxazole, reference compound], the “herbicidal effect in percent, ZEAMX (crop plant)” value worked out at 0% in the assay on Zea mays (corn) (20 g of active compound/ha) and 10% in the assay with Zea mays (corn) (80 g of active compound/ha). Besides, in the assay with POLCO (80 g of active compound/ha), the “herbicidal effect in percent, POLCO” value was 20%. The “herbicidal effect in percent, ALOMY” value worked out at 80% in assay [4] (20 g of active compound/ha) and 90% in assay [4] (80 g of active compound/ha). Besides, the “herbicidal effect in percent, VERPE” value in the assay with VERPE (20 g of active compound/ha) came to 0%.

Consider `Cn1nc(C(F)(F)F)c(C[S+]([O-])C2=NOC(C)(C)C2)c1OC(F)F` (racemic) [Racemate of 483 (S config.) and 664 (R config.), 3-({[5-(difluoromethoxy)-1-methyl-3-(trifluoromethyl)-1H-pyrazol-4-yl]methyl}sulfinyl)-5,5-dimethyl-4,5-dihydroisoxazole, reference compound], for which the “herbicidal effect in percent, BRSNW (crop plant)” value in assay [1] (20 g of active compound/ha) and in assay [1] (80 g of active compound/ha) was 0% in each case. The “herbicidal effect in percent, LOLMU” value in [2] (20 g of active compound/ha) came to 0%; in assay [2] (80 g of active compound/ha), 90%. The “herbicidal effect in percent, SETVI” value was 40% in [3] (20 g of active compound/ha) and 80% in assay [3] (80 g of active compound/ha). The “herbicidal effect in percent, ALOMY” value in assay [4] (20 g of active compound/ha) is given as 0%; in assay [4] (80 g of active compound/ha) it was 90%.

Turning to `CC1(C)CC([S@@+]([O-])Cc2c(F)cccc2F)=NO1` [Compound 6, 3-[(S)-(2,6-Difluorobenzyl)sulfinyl]-5,5-dimethyl-4,5-dihydroisoxazole], the “herbicidal effect in percent, BRSNW (crop plant)” value in assay [1] (80 g of active compound/ha) and in assay [1] (320 g of active compound/ha) was 0% throughout. In assay [5], the “herbicidal activity against harmful plants, pre-emergence method” value (“herbicidal activity … pre-emergence method” below) was “very good herbicidal activity”. The “herbicidal effect in percent, LOLMU” value in [2] (80 g of active compound/ha) is recorded as 80%; in [2] (320 g of active compound/ha), 100%. Further, the results for the “herbicidal effect in percent, SETVI” value in assay [3] (80 g of active compound/ha) and in assay [3] (320 g of active compound/ha) were 60% and 100%, respectively. In addition, the “herbicidal activity against harmful plants, post-emergence method” value (“herbicidal activity … post-emergence method” for short) in [6] was “very good herbicidal activity”. In addition, the “herbicidal effect in percent, ALOMY” value in assay [4] (80 g of active compound/ha) is reported as 90%; in assay [4] (320 g of active compound/ha), 100%.

Take `CC1(C)CC([S@@+]([O-])Cc2c(Cl)cccc2Cl)=NO1` [Compound 32, 3-[(S)-(2,6-Dichlorobenzyl)sulfinyl]-5,5-dimethyl-4,5-dihydroisoxazole]: the “herbicidal activity … pre-emergence method” value in assay [5] is “very good herbicidal activity”. In addition, the “herbicidal effect in percent, ZEAMX (crop plant)” value in the assay with Zea mays (corn) (20 g of active compound/ha) and in the assay with Zea mays (corn) (80 g of active compound/ha) was 0% throughout. The “herbicidal activity … post-emergence method” value in assay [6] is on record as “very good herbicidal activity”. The “herbicidal effect in percent, POLCO” value is recorded as 40% in the assay with POLCO (20 g of active compound/ha) and 80% with POLCO (80 g of active compound/ha). Also, the figures for the “herbicidal effect in percent, ALOMY” value in [4] (20 g of active compound/ha) and in assay [4] (80 g of active compound/ha) were 80% and 100%, respectively. Also, the results for the “herbicidal effect in percent, VERPE” value with VERPE (20 g of active compound/ha) and in the assay on VERPE (80 g of active compound/ha) were 40% and 100%, respectively.

In the case of `CC1(C)CC([S@+]([O-])Cc2c(F)cccc2F)=NO1` [Compound 228, 3-[(R)-(2,6-difluorobenzyl)sulfinyl]-5,5-dimethyl-4,5-dihydroisoxazole], the “herbicidal effect in percent, BRSNW (crop plant)” value in assay [1] (80 g of active compound/ha) and in assay [1] (320 g of active compound/ha) was 0% in each case. Moreover, the “herbicidal activity … pre-emergence method” value in assay [5] is “very good herbicidal activity”. The “herbicidal effect in percent, LOLMU” value in assay [2] (80 g of active compound/ha) and in assay [2] (320 g of active compound/ha) was 0% each time. Further, the figures for the “herbicidal effect in percent, SETVI” value in assay [3] (80 g of active compound/ha) and in assay [3] (320 g of active compound/ha) were 0% and 50%, respectively. Besides, the “herbicidal activity … post-emergence method” value in assay [6] was “very good herbicidal activity”. Further, the “herbicidal effect in percent, ALOMY” value was found to be 60% in assay [4] (80 g of active compound/ha) and 80% in assay [4] (320 g of active compound/ha).

In the case of `CC1(C)CC([S@+]([O-])Cc2c(Cl)cccc2Cl)=NO1` [Compound 254, 3-[(R)-(2,6-dichlorobenzyl)sulfinyl]-5,5-dimethyl-4,5-dihydroisoxazole], in assay [5], the “herbicidal activity … pre-emergence method” value was “very good herbicidal activity”. The “herbicidal effect in percent, ZEAMX (crop plant)” value with Zea mays (corn) (20 g of active compound/ha) and with Zea mays (corn) (80 g of active compound/ha) was 0% throughout. The “herbicidal activity … post-emergence method” value in assay [6] is listed as “very good herbicidal activity”. Moreover, the “herbicidal effect in percent, POLCO” value in the assay on POLCO (20 g of active compound/ha) is on record as 10%; with POLCO (80 g of active compound/ha) it was 20%. Further, the “herbicidal effect in percent, ALOMY” value in assay [4] (20 g of active compound/ha) was 0%; in [4] (80 g of active compound/ha), 60%. Besides, the “herbicidal effect in percent, VERPE” value is listed as 0% in the assay on VERPE (20 g of active compound/ha) and 20% with VERPE (80 g of active compound/ha).

As for `Cn1nc(C(F)(F)F)c(C[S@+]([O-])C2=NOC(C)(C)C2)c1OC(F)F` [Compound 483, 3-[(S)-{[5-(Difluoromethoxy)-1-methyl-3-(trifluoromethyl)-1H-pyrazol-4-yl]methyl}sulfinyl]-5,5-dimethyl-4,5-dihydroisoxazole], the “herbicidal effect in percent, BRSNW (crop plant)” value in assay [1] (20 g of active compound/ha) and in assay [1] (80 g of active compound/ha) was 0% throughout. Besides, in assay [5], the “herbicidal activity … pre-emergence method” value is reported as “very good herbicidal activity”. The “herbicidal effect in percent, LOLMU” value was 60% in [2] (20 g of active compound/ha) and 100% in [2] (80 g of active compound/ha). Moreover, the entries for the “herbicidal effect in percent, SETVI” value in assay [3] (20 g of active compound/ha) and in assay [3] (80 g of active compound/ha) were 80% and 90%, respectively. Besides, the “herbicidal activity … post-emergence method” value in assay [6] is reported as “very good herbicidal activity”. Also, the results for the “herbicidal effect in percent, ALOMY” value in assay [4] (20 g of active compound/ha) and in assay [4] (80 g of active compound/ha) were 80% and 100%, respectively.

For the molecule `Cn1nc(C(F)(F)F)c(C[S@@+]([O-])C2=NOC(C)(C)C2)c1OC(F)F` [Compound 664, 3-[(R)-{[5-(difluoromethoxy)-1-methyl-3-(trifluoromethyl)-1H-pyrazol-4-yl]methyl}sulfinyl]-5,5-dimethyl-4,5-dihydroisoxazole], the “herbicidal activity … pre-emergence method” value in [5] is recorded as “very good herbicidal activity”. In addition, in assay [6], the “herbicidal activity … post-emergence method” value was “very good herbicidal activity”.

For the origin of these results see patent US8895471B2, “Chiral3-(benzylsulfinyl)-5,5-dimethyl-4,5-dihydroisoxazole derivatives and 5,5-dimethyl-3-[(1h-pyrazol-4-ylmethyl)sulfinyl]-4,5-dihyddroisoxazole derivatives, method for the production thereof, and use of same as herbicides and plant growth regulators” (Bayer Cropscience AG, priority 2007, dated 2014).
